{"source": "paper PMC12483202", "about": "“Pharmacokinetic profile of oral firocoxib in the koala (Phascolarctos cinereus)” (PLOS One, 2025)", "key": {"[1]": {"assay": "Repeated oral dosing (5 mg/kg every 12 h, six doses) plasma trough concentrations in koalas", "assay_type": "in vivo", "conditions": "koala (Phascolarctos cinereus)", "procedure": "At least 2 months after the initial single oral dose administration study, firocoxib was administered twice daily at a dose of 5 mg/kg orally (as described in the single dose administration) for three consecutive days with the last dose administered 60 h after first administration, with a total of six doses administered. Blood (2 mL) was collected once daily into lithium heparin tubes at […] after first firocoxib dosage (prior to the morning dose). The cap, extension tube and catheter were flushed with saline before and after each collection. The first 0.5 mL of blood was discarded to avoid dilution of samples with saline.\nWith the repeated oral dosing, the accumulation factor equation [18] was used to ascertain if there was any firocoxib accumulation between trough concentrations at 48 h versus 72 h:\nAccumulationfactor=(1−e^−nkT)/(1−e^−kT)\nWhere n = the number of doses k = ke = elimination constant\nτ = number of hours between dosing"}, "[2]": {"design": "method as in ref [5] of S9 Table", "conditions": "Camels (5); IV 0.1 mg/kg; ref [5] of S9 Table; cited from earlier work"}, "[3]": {"tested_on": "elephant plasma proteins", "design": "method as in PMID 37428699, PMID 38453490", "conditions": "African and Asian elephants; rapid equilibrium dialysis; cited from earlier work"}, "[4]": {"conditions": "cited from earlier work"}, "[5]": {"tested_on": "COX-1:COX-2", "conditions": "cited from earlier work"}, "[6]": {"tested_on": "cyclooxygenase-2", "conditions": "based on in vitro studies in other species; cited from earlier work"}, "[7]": {"conditions": "female, in vivo, Plasma firocoxib concentration (trough)"}, "[8]": {"conditions": "male, in vivo, Plasma firocoxib concentration (trough)"}}, "note": "Where two headings read alike, the source gives them in different places."}
{"smiles": "CC1(C)OC(=O)C(OCC2CC2)=C1c1ccc(S(C)(=O)=O)cc1", "note": "[firocoxib]", "values": [{"measurement": "concentration at 24 h", "setting": "[1]; both sexes, plasma, arithmetic mean, six koalas, 24 h, 5 mg/kg oral every 12 h, read-out: Firocoxib plasma trough concentration", "result": 54.7, "unit": "ng/mL"}, {"measurement": "concentration at 48 h", "setting": "[1]; both sexes, plasma, arithmetic mean, six koalas, 48 h, 5 mg/kg oral every 12 h, read-out: Firocoxib plasma trough concentration", "result": 47.4, "unit": "ng/mL"}, {"measurement": "concentration at 72 h", "setting": "[1]; both sexes, plasma, arithmetic mean, six koalas, 72 h (12 h after the last dose), 5 mg/kg oral every 12 h, read-out: Firocoxib plasma trough concentration", "result": 85.5, "unit": "ng/mL"}, {"measurement": "concentration at 24 h", "setting": "[1]; both sexes, plasma, harmonic mean, six koalas, 24 h, 5 mg/kg oral every 12 h, read-out: Firocoxib plasma trough concentration", "result": 43.3, "unit": "ng/mL"}, {"measurement": "concentration at 48 h", "setting": "[1]; both sexes, plasma, harmonic mean, six koalas, 48 h, 5 mg/kg oral every 12 h, read-out: Firocoxib plasma trough concentration", "result": 33.2, "unit": "ng/mL"}, {"measurement": "concentration at 72 h", "setting": "[1]; both sexes, plasma, harmonic mean, six koalas, 72 h (12 h after the last dose), 5 mg/kg oral every 12 h, read-out: Firocoxib plasma trough concentration", "result": 68.8, "unit": "ng/mL"}, {"measurement": "concentration at 24 h", "setting": "[1]; both sexes, plasma, median, six koalas, 24 h, 5 mg/kg oral every 12 h, read-out: Firocoxib plasma trough concentration", "result": 58.3, "unit": "ng/mL"}, {"measurement": "concentration at 48 h", "setting": "[1]; both sexes, plasma, median, six koalas, 48 h, 5 mg/kg oral every 12 h, read-out: Firocoxib plasma trough concentration", "result": 52.9, "unit": "ng/mL"}, {"measurement": "concentration at 72 h", "setting": "[1]; both sexes, plasma, median, six koalas, 72 h (12 h after the last dose), 5 mg/kg oral every 12 h, read-out: Firocoxib plasma trough concentration", "result": 82.1, "unit": "ng/mL"}, {"measurement": "concentration at 24 h", "setting": "[1]; [7]", "result": 69.1, "unit": "ng/mL"}, {"measurement": "concentration at 48 h", "setting": "[1]; [7]", "result": 36.8, "unit": "ng/mL"}, {"measurement": "concentration at 72 h", "setting": "[1]; [7]", "result": 137, "unit": "ng/mL"}, {"measurement": "concentration at 24 h", "setting": "[1]; female, plasma, harmonic mean, females, 24 h, 5 mg/kg oral every 12 h, read-out: Firocoxib trough plasma concentration", "result": 75.5, "unit": "ng/mL"}, {"measurement": "concentration at 48 h", "setting": "[1]; female, plasma, harmonic mean, females, 48 h, 5 mg/kg oral every 12 h, read-out: Firocoxib trough plasma concentration", "result": 51.6, "unit": "ng/mL"}, {"measurement": "concentration at 72 h", "setting": "[1]; female, plasma, harmonic mean, females, 72 h, 5 mg/kg oral every 12 h, read-out: Firocoxib trough plasma concentration", "result": 118, "unit": "ng/mL"}, {"measurement": "concentration at 24 h", "setting": "[1]; female, plasma, mean, females, 24 h, 5 mg/kg oral every 12 h, read-out: Firocoxib trough plasma concentration", "result": 76.5, "unit": "ng/mL"}, {"measurement": "concentration at 48 h", "setting": "[1]; female, plasma, mean, females, 48 h, 5 mg/kg oral every 12 h, read-out: Firocoxib trough plasma concentration", "result": 55.5, "unit": "ng/mL"}, {"measurement": "concentration at 72 h", "setting": "[1]; female, plasma, mean, females, 72 h, 5 mg/kg oral every 12 h, read-out: Firocoxib trough plasma concentration", "result": 120, "unit": "ng/mL"}, {"measurement": "concentration at 24 h", "setting": "[1]; female, plasma, median (range), females, 24 h, 5 mg/kg oral every 12 h, read-out: Firocoxib trough plasma concentration", "result": 71.3, "unit": "ng/mL"}, {"measurement": "concentration at 48 h", "setting": "[1]; female, plasma, median (range), females, 48 h, 5 mg/kg oral every 12 h, read-out: Firocoxib trough plasma concentration", "result": 60.2, "unit": "ng/mL"}, {"measurement": "concentration at 72 h", "setting": "[1]; female, plasma, median (range), females, 72 h, 5 mg/kg oral every 12 h, read-out: Firocoxib trough plasma concentration", "result": 120, "unit": "ng/mL"}, {"measurement": "concentration at 24 h", "setting": "[1]; [8]", "result": 25.3, "unit": "ng/mL"}, {"measurement": "concentration at 72 h", "setting": "[1]; [8]", "result": 61.8, "unit": "ng/mL"}, {"measurement": "concentration at 24 h", "setting": "[1]; male, plasma, arithmetic mean, males, 24 h, 5 mg/kg oral every 12 h, read-out: Firocoxib trough plasma concentration", "result": 33, "unit": "ng/mL"}, {"measurement": "concentration at 48 h", "setting": "[1]; male, plasma, arithmetic mean, males, 48 h, 5 mg/kg oral every 12 h, read-out: Firocoxib trough plasma concentration", "result": 39.2, "unit": "ng/mL"}, {"measurement": "concentration at 72 h", "setting": "[1]; male, plasma, arithmetic mean, males, 72 h, 5 mg/kg oral every 12 h, read-out: Firocoxib trough plasma concentration", "result": 51.3, "unit": "ng/mL"}, {"measurement": "concentration at 24 h", "setting": "[1]; male, plasma, harmonic mean, males, 24 h, 5 mg/kg oral every 12 h, read-out: Firocoxib trough plasma concentration", "result": 30.3, "unit": "ng/mL"}, {"measurement": "concentration at 48 h", "setting": "[1]; male, plasma, harmonic mean, males, 48 h, 5 mg/kg oral every 12 h, read-out: Firocoxib trough plasma concentration", "result": 24.6, "unit": "ng/mL"}, {"measurement": "concentration at 72 h", "setting": "[1]; male, plasma, harmonic mean, males, 72 h, 5 mg/kg oral every 12 h, read-out: Firocoxib trough plasma concentration", "result": 48.5, "unit": "ng/mL"}, {"measurement": "concentration at 24 h", "setting": "[1]; male, plasma, median (range), males, 24 h, 5 mg/kg oral every 12 h, read-out: Firocoxib trough plasma concentration", "result": 26.1, "unit": "ng/mL"}, {"measurement": "concentration at 48 h", "setting": "[1]; male, plasma, median (range), males, 48 h, 5 mg/kg oral every 12 h, read-out: Firocoxib trough plasma concentration", "result": 48.2, "unit": "ng/mL"}, {"measurement": "concentration at 72 h", "setting": "[1]; male, plasma, median (range), males, 72 h, 5 mg/kg oral every 12 h, read-out: Firocoxib trough plasma concentration", "result": 56.2, "unit": "ng/mL"}, {"measurement": "t1/2", "setting": "[2]", "result": 5.75, "unit": "h"}, {"measurement": "binding to elephant plasma proteins", "setting": "[3]", "result": 45, "unit": "%"}, {"measurement": "ionizability", "setting": "[4]; at physiological pH", "result": "low ionizability"}, {"measurement": "-log10 dissociation constant (pka)", "setting": "[4]", "result": 19.69}, {"measurement": "solubility in dimethyl sulfoxide", "setting": "[4]", "result": "highly soluble"}, {"measurement": "solubility in water", "setting": "[4]", "result": "insoluble"}, {"measurement": "COX-1:COX-2 inhibition ratio", "setting": "[5]; dogs, whole blood", "result": "384–427"}, {"measurement": "COX-2 selectivity relative to carprofen", "setting": "[5]; more potent than carprofen in COX-2 selectivity", "result": 30, "unit": "fold"}, {"measurement": "target plasma concentration to inhibit 80% of cyclooxygenase-2 activity (IC80)", "setting": "[6]", "result": "approximately 100 ng/mL"}]}
